Measurements taken from patent US10757937B2, “Sulfonamides that activate ABA receptors” (The Regents of the University of California, priority 2014, dated 2020).
Like-named read-outs stand apart in the source and are kept apart here.

Key:
Experiment in all cases: receptor-mediated PP2C (HAB1) inhibition in vitro assay
Assay type in all cases: biochemical
PYL1 = target: T1, PYL1 (Arabidopsis thaliana, UniProt Q8VZS8); settings: for remaining activity at 50 µM: 50 uM of the test compound
T1 construct: 6X-His; made in house; host or cells: E. coli BL21[DE3]pLysS
T1 sequence (Q8VZS8 1-221): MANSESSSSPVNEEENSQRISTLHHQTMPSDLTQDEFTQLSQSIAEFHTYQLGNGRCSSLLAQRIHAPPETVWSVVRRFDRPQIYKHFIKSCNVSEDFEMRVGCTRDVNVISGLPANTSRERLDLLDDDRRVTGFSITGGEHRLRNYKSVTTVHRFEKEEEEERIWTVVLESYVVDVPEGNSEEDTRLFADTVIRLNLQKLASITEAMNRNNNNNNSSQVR
T1 sequence (Q9CAJ0 23-511 partner): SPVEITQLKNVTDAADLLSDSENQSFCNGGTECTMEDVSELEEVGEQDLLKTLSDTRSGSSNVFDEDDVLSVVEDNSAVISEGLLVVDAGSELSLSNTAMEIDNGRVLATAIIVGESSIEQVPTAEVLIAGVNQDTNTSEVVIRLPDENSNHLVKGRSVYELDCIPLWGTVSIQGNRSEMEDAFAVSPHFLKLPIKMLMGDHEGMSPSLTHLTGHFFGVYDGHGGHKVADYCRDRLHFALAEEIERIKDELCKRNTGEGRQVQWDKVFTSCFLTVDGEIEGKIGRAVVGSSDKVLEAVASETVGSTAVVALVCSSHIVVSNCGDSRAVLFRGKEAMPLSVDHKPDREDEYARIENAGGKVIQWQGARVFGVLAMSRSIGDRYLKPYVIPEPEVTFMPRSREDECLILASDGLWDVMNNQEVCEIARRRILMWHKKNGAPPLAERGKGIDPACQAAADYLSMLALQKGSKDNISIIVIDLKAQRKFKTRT
Outline: (§1)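 Compounds, tested at 25 μM or 50 uM with ABA at 10 uM, were incubated with recombinant receptor and 50 nM GST-HAB1 (2:1 ratio) in MnCl2-containing Tris-OAc buffer, pH 7.9. Phosphatase activity was followed by 4-methylumbelliferyl-phosphate fluorescence.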

PYL11 = target: T2, PYL11 (Arabidopsis thaliana, UniProt Q9FJ50); settings: for remaining activity at 50 µM: 50 uM of the test compound
T2 construct: made in house; host or cells: E. coli BL21[DE3]pLysS
T2 sequence (Q9FJ50 1-161): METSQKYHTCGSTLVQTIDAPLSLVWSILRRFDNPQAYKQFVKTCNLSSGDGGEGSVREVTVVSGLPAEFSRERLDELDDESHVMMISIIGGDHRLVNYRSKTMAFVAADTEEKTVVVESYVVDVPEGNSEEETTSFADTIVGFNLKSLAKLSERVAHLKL
T2 sequence (Q9CAJ0 23-511 partner): T1 sequence (Q9CAJ0 23-511 partner)
Outline: as §1

PYL2 = target: T3, PYL2 (Arabidopsis thaliana, UniProt O80992); settings: for remaining activity at 50 µM: 50 uM of the test compound
T3 construct: 6X-His; made in house; host or cells: E. coli BL21[DE3]pLysS
T3 sequence (O80992 1-190): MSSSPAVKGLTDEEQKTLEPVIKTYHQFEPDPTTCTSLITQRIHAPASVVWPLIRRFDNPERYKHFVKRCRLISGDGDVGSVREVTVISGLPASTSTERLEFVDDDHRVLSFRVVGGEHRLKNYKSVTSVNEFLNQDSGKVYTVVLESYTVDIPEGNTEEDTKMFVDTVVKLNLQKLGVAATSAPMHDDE
T3 sequence (Q9CAJ0 23-511 partner): T1 sequence (Q9CAJ0 23-511 partner)
Outline: as §1

PYL5 = target: T4, PYL5 (Arabidopsis thaliana, UniProt Q9FLB1); settings: for remaining activity at 50 µM: 50 uM of the test compound; for remaining activity at 25 µM: compound at 25 μM, control without agonist = 100%
T4 construct: 6X-His; made in house; host or cells: E. coli BL21[DE3]pLysS
T4 sequence (Q9FLB1 1-203): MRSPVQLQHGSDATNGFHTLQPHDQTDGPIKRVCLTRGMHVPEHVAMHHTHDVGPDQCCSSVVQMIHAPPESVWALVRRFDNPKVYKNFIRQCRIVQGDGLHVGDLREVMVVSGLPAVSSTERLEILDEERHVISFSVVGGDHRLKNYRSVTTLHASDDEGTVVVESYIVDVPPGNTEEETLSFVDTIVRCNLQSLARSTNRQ
T4 sequence (Q9CAJ0 23-511 partner): T1 sequence (Q9CAJ0 23-511 partner)
Outline: as §1

PYL6 = target: T5, PYL6 (Arabidopsis thaliana, UniProt Q8S8E3); settings: for remaining activity at 50 µM: 50 uM of the test compound
T5 construct: 6X-His; made in house; host or cells: E. coli BL21[DE3]pLysS
T5 sequence (Q8S8E3 1-215): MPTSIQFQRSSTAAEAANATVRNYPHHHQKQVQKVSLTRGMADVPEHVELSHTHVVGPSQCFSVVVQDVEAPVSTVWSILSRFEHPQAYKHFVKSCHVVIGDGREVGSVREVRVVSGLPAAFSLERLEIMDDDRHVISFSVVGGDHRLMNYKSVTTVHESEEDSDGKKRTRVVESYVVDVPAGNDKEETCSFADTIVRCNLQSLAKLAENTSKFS
T5 sequence (Q9CAJ0 23-511 partner): T1 sequence (Q9CAJ0 23-511 partner)
Outline: as §1

PYL9 = target: T6, PYL9 (Arabidopsis thaliana, UniProt Q84MC7); settings: for remaining activity at 50 µM: 50 uM of the test compound; for remaining activity at 25 µM: compound at 25 μM, control without agonist = 100%
T6 construct: 6X-His; made in house; host or cells: E. coli BL21[DE3]pLysS
T6 sequence (Q84MC7 1-187): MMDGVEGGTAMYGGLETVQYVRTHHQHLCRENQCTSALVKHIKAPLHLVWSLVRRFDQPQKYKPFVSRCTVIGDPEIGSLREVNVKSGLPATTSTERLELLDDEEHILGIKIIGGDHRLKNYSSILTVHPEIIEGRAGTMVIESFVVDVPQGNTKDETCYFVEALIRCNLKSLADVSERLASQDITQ
T6 sequence (Q9CAJ0 23-511 partner): T1 sequence (Q9CAJ0 23-511 partner)
Outline: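 Fluorogenic readout: 4-methylumbelliferyl-phosphate hydrolysis by 50 nM GST-HAB1 plus 2:1 His-receptor; Tris-OAc pH 7.9, NaCl, 1 mM MnCl2, β-ME. Compounds at 25 μM or 50 uM single dose; IC50 from dose curves for selected compounds.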

[1] = Table XII-B, calculated from dose curves, read-out: PP2C Activity (IC50 in uM) PYL1
[2] = Table XII-B, calculated from dose curves, read-out: PP2C Activity (IC50 in uM) PYL11
[3] = Table XII-B, calculated from dose curves, read-out: PP2C Activity (IC50 in uM) PYL2
[4] = Table XII-B, calculated from dose curves, read-out: PP2C Activity (IC50 in uM) PYL5
[5] = Table XII-B, calculated from dose curves, read-out: PP2C Activity (IC50 in uM) PYL6
[6] = Table XII-B, calculated from dose curves, read-out: PP2C Activity (IC50 in uM) PYL9
[7] = Table VII, read-out: PP2C Dose Curves PYL11 (IC50)
[8] = Table VII, read-out: PP2C Dose Curves PYL2 (IC50)
[9] = Table VII, read-out: PP2C Dose Curves PYL5 (IC50)
[10] = Table VII, read-out: PP2C Dose Curves PYL6 (IC50)
[11] = Table VII, read-out: PP2C Dose Curves PYL9 (IC50)

IC50 (PYL1; Table VII, read-out: PP2C Dose Curves PYL1 (IC50))	IC50 (PYL11; [7])	IC50 (PYL2; [8])	IC50 (PYL5; [9])	remaining activity at 25 µM (PYL5)	IC50 (PYL6; [10])	IC50 (PYL9; [11])	remaining activity at 25 µM (PYL9)	Compound	remaining activity at 50 µM (PYL1)	IC50 (PYL1; [1])	remaining activity at 50 µM (PYL11)	IC50 (PYL11; [2])	remaining activity at 50 µM (PYL2)	IC50 (PYL2; [3])	remaining activity at 50 µM (PYL5)	IC50 (PYL5; [4])	remaining activity at 50 µM (PYL6)	IC50 (PYL6; [5])	remaining activity at 50 µM (PYL9)	IC50 (PYL9; [6])
–	–	–	–	–	–	–	–	O=C(NS(=O)(=O)Cc1ccc(F)cc1)C1(c2ccccc2)CCCCC1 [Compound 64]	102%	> 50 µM	97.5%	> 50 µM	107%	> 50 µM	103%	> 50 µM	109%	> 50 µM	91.1%	> 50 µM
–	–	–	–	–	–	–	–	N#Cc1ccc(CS(=O)(=O)NC(=O)C(c2ccccc2)c2ccccc2)cc1 [Compound 71, N-[(4-Cyanophenyl)methanesulfonyl]-2,2-diphenylacetamide]	93.8%	> 50 µM	43.2%	25 µM	102%	> 50 µM	102%	> 50 µM	96.9%	> 50 µM	81.8%	> 50 µM
–	–	–	–	–	–	–	–	N#Cc1ccc(CS(=O)(=O)NC(=O)C(c2ccc(F)cc2)c2ccc(F)cc2)cc1 [Compound 72, N-[(4-Cyanophenyl)methanesulfonyl]-2,2-bis(4-fluorophenyl)acetamide]	94.2%	> 50 µM	37.4%	25 µM	100%	> 50 µM	102%	> 50 µM	95.1%	> 50 µM	85.8%	> 50 µM
> 50 µM	2.44 µM	> 50 µM	> 50 µM	85%	57.1 µM	3.9 µM	15%	CCC(CC)(C(=O)NS(=O)(=O)Cc1ccc([N+](=O)[O-])cc1)c1ccccc1 [Compound 19]	–	–	–	–	–	–	–	–	–	–	–	–
–	4.16 µM	> 50 µM	> 50 µM	21%	> 50 µM	8.96 µM	32%	CC(C)(C(=O)NS(=O)(=O)Cc1ccc(C#N)cc1)c1ccc(Cl)cc1 [Compound 6]	–	–	–	–	–	–	–	–	–	–	–	–
–	–	–	–	–	–	–	–	N#Cc1ccc(CS(=O)(=O)NC(=O)C(C2CCCCC2)C2CCCCC2)cc1 [Compound 73, N-[(4-Cyanophenyl)methanesulfonyl]-2,2-cyclohexylacetamide]	95.5%	> 50 µM	26.9%	22.4 µM	93.8%	> 50 µM	110%	> 50 µM	91%	> 50 µM	56.3%	> 50 µM
